{"source": "patent US20110311457A1", "about": "“METHODS FOR IMAGING VASCULAR INFLAMMATION USING IMPROVED NANOPARTICLE CONTRAST AGENTS” (NANOSCAN IMAGING, LLC, priority 2007, published 2011)", "key": {"[1]": {"test_system": "rabbit VX2-tumor", "assay": "CT tumor perfusion imaging in a tumor bearing rabbit", "assay_type": "in vivo", "settings": "for HU value, ROI 1 Tumor vessel / HU value, ROI 2 Vessel / HU value, ROI 3 Tumor vital tissue / HU value, ROI 4 Tumor necrotic tissue / HU value, ROI 5 Whole tumor: 300 mgI/kg b.w.", "description": "The goal of the study was to explore the potential of different contrast media to visualize tumor perfusion."}, "[2]": {"assay": "Particle size during milling, PCS", "assay_type": "physicochemical", "description": "This is the most widely used technique for particle size density determination and there are two main variations: photon correlation spectroscopy (PCS), and Fraunhofer Diffraction (FD). The choice is dictated by the particle size range under investigation. PCS works for sizes from a few nanometers up to about 1 micron (1000 nm), and FD works from about 1 micron up to millimeters. Both methods are called “ensemble averaging methods.” This means that the two relevant pieces of information needed to describe the particle size density (the actual size and the amount of material at that size) need to be deconvoluted from a single measurement of the amount of light scattered. This involves application of extremely complex theory and equally complex deconvolution algorithms (Kerker, M. (1969) The Scattering of Light and other Electromagnetic Radiation. Academic Press, New York). Thus, both measurement variations are intrinsically low resolution: typically the best that can be achieved is to differentiate between two class sizes (Weiner, B. B. (1984) Modern Methods of Particle Sizing. Barth, H. (ed). Wiley-Interscience). A technical issue arises when the particle size density extends across the one micron point, because then the two different algorithms/theories need to be applied and these cannot be combined together. Attempts to do so result in artifacts in the particle size density such that commercial instruments smooth the data resulting in even less resolution. Being based on light scattering, the fundamental value obtained is an “intensity-weighted” number (Di). Transforming the Di value into a Dv value presents several challenges. The first is that, in addition to the assumption of sphereicity, both PCS and FD weight the intensity differently, and the second is that the transform necessitates application of scattering and efficiency corrections (Weiner, B. B., Fairhurst, D., and Tscharnuter, W. W. (1991) Particle Size Distribution II—Assessment and Characterization. Provder, T. (ed). ACS Symposium Series No. 472. American Chemical Society). Although such corrections can be calculated from Mie theory (Kerker, M. (1969) The Scattering of Light and other Electromagnetic Radiation. Academic Press, New York), they are particle size dependent and require knowledge of the optical properties (complex refractive index) of both the particles and the surrounding medium. The result is that the Dv value (and if further transforms are made to Ds and Dn) can be widely inaccurate. However, for quality control purposes the technique is extremely fast and, for measurements on the same material, extremely reproducible. Laser light scattering may also be referred to as Dynamic Light Scattering (DLS) and generally refers to the PCS technique. Asymmetrical flow field-flow-fractionation (AF4) is a newer method based on light scattering which may be employed. The benefit A4F is that the method is able to separate nanoparticle mixtures prior to DLS analysis.\n(§1) N1177 was milled to the desired particle size distribution. The particle size during milling was monitored in a preliminary study by periodically measuring particle size using XDC and PCS instruments."}, "[3]": {"assay": "Particle size during milling, XDC", "assay_type": "physicochemical", "description": "In one embodiment, XDC (X-ray disc centrifuge sedimentometry) is used to measure particle size distribution. This is one of the most precise methods available for inorganic materials. The technique is based on the fact that particles of a different size (and of the same density) will take different times to travel between two points under the same force (e.g., gravity, centrifugal force): a larger particle will travel faster than a small particle. The derivation of the Stokes' equation for centrifugal sedimentation has been described many times in the literature (Thomas, J. C., and Fairhurst, D. (1991) Surface Phenomena and Fine Particles in Water-based Coatings and Paints. Sharma, M. K., and Micale, F. J. (eds), Plenum Press, New York). The relationship between size and the time taken is a square function. Thus, if a particle of (for example) one micron, takes one second to traverse a given distance, a 0.1 micron particle will take 100 seconds. With a distribution a particle sizes, the particles will effectively fractionate as they move under the proscribed (centrifugal) force. Because time can be measured extremely precisely, the sizes detected can be measured with great precision. The method used to determine the “amount” of material at any given size is X-ray absorbtion. For many inorganic materials, X-rays are absorbed in proportion to mass. The particle size density is therefore “mass-weighted.” Since, for a given particle density, mass is proportional to volume, a “volume-weighted” value (Dv) can be calculated for particle size density. Making the assumption that the particles are spherical, Dv can be transformed into either a surface-weighted value (Ds) or a number-weighted value (Dn). The latter number can be compared with the size determined from electron microscopy. For particle sizes in the colloidal domain (less than 1 micron), the assumption of sphericity is quite reasonable and becomes more so as the particle size gets smaller into the deep sub-micron (<100 nm) and the true nanometer (ca 10 nm) range. The size range that can be accommodated in XDC measurements is dictated only by the width of the particle size density, e.g., how long the measurement will take. The XDC method can be quite time consuming for a very broad particle size density.\nas §1"}, "[4]": {"test_system": "erythrocytes", "assay": "Influence on erythrocyte morphology (damage index) in vitro", "assay_type": "cell-based, human", "settings": "final conc. 52.86 mg I/mL, value in % of maximal damage index", "experimental": "Effects on red blood cells can be monitored in vitro, by exposing human blood to contrast agents, monitoring the appearance of deformed erythrocytes and deriving a “damage index” (D.I.) immediately after exposure, 1 and 2 hours after incubation. Parameters: Morphological changes of blood erxthrocytes;"}, "[5]": {"test_system": "SPF-mice", "settings": "established marketed contrast media, comparison value; cited from earlier work"}}, "data": [{"smiles": "CCOC(=O)CCCCCOC(=O)c1c(I)c(NC(C)=O)c(I)c(NC(C)=O)c1I", "note": "[Compound N1177, 6-ethoxy-6-oxohexy-3,5-bis(acetylamino)-2,4,6-triiodobenzoate]", "values": [{"measurement": "HU value, ROI 1 Tumor vessel", "setting": "[1]", "value": 81, "unit": "HU"}, {"measurement": "HU value, ROI 2 Vessel", "setting": "[1]", "value": 307, "unit": "HU"}, {"measurement": "HU value, ROI 3 Tumor vital tissue", "setting": "[1]", "value": 5, "unit": "HU"}, {"measurement": "HU value, ROI 4 Tumor necrotic tissue", "setting": "[1]", "value": 9, "unit": "HU"}, {"measurement": "HU value, ROI 5 Whole tumor", "setting": "[1]", "value": 13, "unit": "HU"}, {"measurement": "Mean Effective Diameter (PCS)", "setting": "[2]; Milled Day 3", "value": 158, "unit": "nm"}, {"measurement": "Mean Effective Diameter (PCS)", "setting": "[2]; Milled Day 4", "value": 151, "unit": "nm"}, {"measurement": "Mean Effective Diameter (PCS)", "setting": "[2]; Milled Day 5", "value": 149, "unit": "nm"}, {"measurement": "Mean Effective Diameter (PCS)", "setting": "[2]; Milled Day 6", "value": 148, "unit": "nm"}, {"measurement": "Mean Effective Diameter (PCS)", "setting": "[2]; Milled Day 7", "value": 147, "unit": "nm"}, {"measurement": "Mean Effective Diameter (PCS)", "setting": "[2]; T = 0 (unmilled)", "value": 236, "unit": "nm"}, {"measurement": "Mean Size DN (XDC)", "setting": "[3]; Milled Day 3", "value": 84, "unit": "nm"}, {"measurement": "Mean Size DV (XDC)", "setting": "[3]; Milled Day 3", "value": 148, "unit": "nm"}, {"measurement": "Mean Size DN (XDC)", "setting": "[3]; Milled Day 5", "value": 79, "unit": "nm"}, {"measurement": "Mean Size DV (XDC)", "setting": "[3]; Milled Day 5", "value": 143, "unit": "nm"}, {"measurement": "Mean Size DN (XDC)", "setting": "[3]; Milled Day 7", "value": 77, "unit": "nm"}, {"measurement": "Mean Size DV (XDC)", "setting": "[3]; Milled Day 7", "value": 138, "unit": "nm"}, {"measurement": "Mean Size DN (XDC)", "setting": "[3]; T = 0 (unmilled)", "value": 173, "unit": "nm"}, {"measurement": "Mean Size DV (XDC)", "setting": "[3]; T = 0 (unmilled)", "value": 424, "unit": "nm"}]}, {"smiles": "COCC(=O)Nc1c(I)c(C(=O)NCC(O)CO)c(I)c(C(=O)N(C)CC(O)CO)c1I", "note": "(centres unmarked) [Ultravist]", "values": [{"measurement": "Damage index after incubation", "setting": "[4]; 0 h", "value": 31.2, "unit": "%"}, {"measurement": "Damage index after incubation", "setting": "[4]; 1 h", "value": 12.2, "unit": "%"}, {"measurement": "Damage index after incubation", "setting": "[4]; 2 h", "value": 24.4, "unit": "%"}, {"measurement": "HU value, ROI 1 Tumor vessel", "setting": "[1]", "value": 95, "unit": "HU"}, {"measurement": "HU value, ROI 2 Vessel", "setting": "[1]", "value": 294, "unit": "HU"}, {"measurement": "HU value, ROI 3 Tumor vital tissue", "setting": "[1]", "value": 30, "unit": "HU"}, {"measurement": "HU value, ROI 4 Tumor necrotic tissue", "setting": "[1]", "value": 4, "unit": "HU"}, {"measurement": "HU value, ROI 5 Whole tumor", "setting": "[1]", "value": 37, "unit": "HU"}, {"measurement": "tumor perfusion (intra-/extravasal)", "setting": "[1]; dynamic CT 0-80 s", "value": "intra- and extravasal perfusion"}, {"measurement": "LD50", "setting": "[5]", "value": "> 12", "unit": "g Iodine/kg bw"}]}]}
